Patent US8034574B2, “Screening method for prokinetic agent” (Astellas Pharma Inc., priority 2006, dated 2011)
Entries after “also recorded” stand apart in the source; their conditions may differ.

How the values were obtained:
rat EC cells = experiment: Serotonin secretion from rat small intestine EC cells; format: cell-based; details: 45 minutes culture
Method: A Wistar rat (male, 8-week-old) was decapitated and exsanguinated, after which it was dissected and laparotomized with scissors, and the small intestine was extirpated. The inside of the lumen of the extirpated small intestine was washed with physiological saline, and about 20 mL of Buffer A (70 mM NaCl, 5 mM KCl, 20 mM NaHCO3, 0.5 mM NaH2PO4, 50 mM HEPES (pH 7.2), 11 mM glucose, 3 mM EDTA, 0.5% BSA, 0.05 mM dithiothreitol, 1 mg/mL N-acetyl-L-cysteine) was injected, after which both ends were closed, and the small intestine was allowed to stand in 37° C. incubated HBSS for 10 minutes. Thereafter, the Buffer A in the lumen of the small intestine was discarded, about 20 mL of Buffer A was injected again, and the small intestine was allowed to stand in 37° C. incubated HBSS for 10 minutes. Again, the Buffer A in the lumen of the small intestine was discarded, fresh Buffer A was injected, and the small intestine was allowed to stand in 37° C. incubated HBSS for 20 minutes, after which the lumen content was recovered. […]
Serotonin secretion activity in EC cells prepared by the method described in Example 9-(3) was measured by a method modified from the method of Example 14 above. […]
The serotonin content in the supernatant was measured using a commercially available serotonin immunoassay kit (Beckman). […]

mouse constipation model = experiment: Loperamide-induced mouse constipation model (bead discharge time); format: in vivo; details: loperamide 0.3 mg/kg s.c., 0.01 to 1 mg/kg oral
Method: Because loperamide, a μ opioid receptor agonist, induces convulsive contraction in the gut and causes a delay of gut transportation, this experimental system is thought to be an experimental model of constipation type irritable bowel syndrome.
Mice (ddY, male, 5-week-old, SLC) were fasted from afternoon of the day before the experiment; on the day of the experiment, the mice were acclimated to the measurement cage for 1 hour or more, after which loperamide, 0.3 mg/kg, was administered subcutaneously. […] The mouse was returned to the measurement cage, and time from awakening to discharge of the glass beads was measured.

guinea pig ileum = experiment: Isolated guinea pig gut constriction (Magnus, ileum)
Method: Guinea pigs (Hartley strain, male, weighing 300-400 g), under ether anesthesia, were exsanguinated to death by cutting the carotid artery. The ileum was extirpated, about 15-cm portions at both ends were removed, a section 1.5 cm long was cut out from the remaining portion, and incisions were made longitudinally parallelly in the gut to prepare a tabular specimen. This specimen was sandwiched with serrefine at both ends, and suspended with a thread in a Magnus chamber containing 10 ml of a 37° C. Krebs solution (118 mM NaCl, 4.7 mM KCl, 2.5 mM CaCl2, 1.2 mM MgSO4, 1.2 mM KH2PO4, 11 mM D-glucose, 20 mM NaHCO3) aerated with 95% O2-5% CO2 mixed gas. A 1-g load was applied to the specimen, buffers were exchanged at 15-minute intervals, and the specimen was allowed to stand for about 60 minutes to stabilize its tension. Changes in the tension in response to agonist stimulation were measured isometrically, and recorded on a recorder. Acetylcholine, 10^−5 M, was administered to induce contraction of the ileum specimen; after the contraction maximized, the bath was washed three times to purge out the acetylcholine. This operation was repeated at 10-minute intervals, and after the induced contraction stabilized two consecutive times, each test substance was administered. By comparing the contractile forces produced by acetylcholine and the test substance, the effect of the test substance was evaluated. One specimen was investigated only at one concentration of the test substance. […] From the results above, it was shown that the TRPA1 activator induced gut contraction.
The serotonin receptor antagonists used were pizotifen maleate (10 μM), a 5-HT1,2 receptor antagonist, ketanserin tartrate (0.1 μM), a 5-HT2 receptor antagonist, ramosetron hydrochloride (0.3 μM), a 5-HT3 receptor antagonist, and GR113808 (0.3 μM), a 5-HT4 receptor antagonist.
The inhibitory actions of various serotonin receptor antagonists on contraction upon stimulation with acrolein (300 μM) were investigated in the same manner. […] From the results above, it was shown that serotonin was released upon stimulation with acrolein to induce contraction via serotonin receptors such as 5-HT1 receptor and 5-HT3 receptor.

[1] = target: T1, human TRPA1 (polypeptide of SEQ ID NO:2) (Homo sapiens, UniProt O75762, K186N/R3C/R58T); experiment: Intracellular calcium by FLIPR in CHO-K1 cells expressing human TRPA1 (activator screening); format: cell-based; details: CHO-K1 cells expressing human TRPA1; FLIPR, Fluo3-AM
T1 construct: expressed in transfected cells; host or cells: CHO-K1 cells, transient transfection of the pcDNA3.1(+) human TRPA1 vector
T1 sequence (O75762 whole entry R3C/R58T/K186N): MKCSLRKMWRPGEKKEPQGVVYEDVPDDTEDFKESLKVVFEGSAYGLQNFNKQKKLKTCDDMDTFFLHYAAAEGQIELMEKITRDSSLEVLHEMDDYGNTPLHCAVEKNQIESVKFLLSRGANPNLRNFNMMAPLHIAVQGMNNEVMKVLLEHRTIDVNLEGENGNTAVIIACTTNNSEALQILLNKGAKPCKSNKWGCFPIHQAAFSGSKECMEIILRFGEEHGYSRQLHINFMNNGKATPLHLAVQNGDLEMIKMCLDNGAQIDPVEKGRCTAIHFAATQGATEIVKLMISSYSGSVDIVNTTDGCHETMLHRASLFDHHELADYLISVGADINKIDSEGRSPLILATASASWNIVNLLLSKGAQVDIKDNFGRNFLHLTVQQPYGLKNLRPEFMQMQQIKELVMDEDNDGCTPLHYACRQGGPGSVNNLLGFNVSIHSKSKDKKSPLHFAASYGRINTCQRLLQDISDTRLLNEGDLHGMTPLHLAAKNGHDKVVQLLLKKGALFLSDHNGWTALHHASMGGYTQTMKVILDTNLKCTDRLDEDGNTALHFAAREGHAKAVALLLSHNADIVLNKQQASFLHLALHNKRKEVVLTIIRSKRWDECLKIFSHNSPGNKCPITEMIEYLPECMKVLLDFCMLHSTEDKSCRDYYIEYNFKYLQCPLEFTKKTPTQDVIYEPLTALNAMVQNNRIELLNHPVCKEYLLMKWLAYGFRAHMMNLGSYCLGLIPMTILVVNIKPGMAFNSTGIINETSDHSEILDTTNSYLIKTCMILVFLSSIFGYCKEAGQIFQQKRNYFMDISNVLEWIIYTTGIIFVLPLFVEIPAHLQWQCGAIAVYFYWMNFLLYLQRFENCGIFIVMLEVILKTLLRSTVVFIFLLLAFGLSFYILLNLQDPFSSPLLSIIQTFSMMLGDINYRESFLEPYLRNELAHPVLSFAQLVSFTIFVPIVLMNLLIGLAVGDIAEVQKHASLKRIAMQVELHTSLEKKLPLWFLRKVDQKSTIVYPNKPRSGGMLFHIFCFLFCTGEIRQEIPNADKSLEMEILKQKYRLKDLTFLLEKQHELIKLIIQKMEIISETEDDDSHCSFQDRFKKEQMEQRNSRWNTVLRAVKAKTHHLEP
Method: To detect the TRPA1 channel activity of a polypeptide consisting of the amino acid sequence shown by SEQ ID NO:2, the expression vector obtained in Example 1 above was transfected to animal cells, whereby the aforementioned protein was expressed.
Various test samples were added to CHO-K1 cells forced to is transiently express TRPA1 by the transfection operation of Example 2 above, and the resulting changes in intracellular calcium concentration were measured using FLIPR (Molecular Device).
To measure the changes in intracellular calcium concentration by FLIPR, the following pre-treatment was performed. First, an assay buffer for adding the fluorescent dye Fluo3-AM (DOJIN) to the cells, or for washing the cells just before performing the FLIPR assay, was prepared. To a solution prepared by adding 20 ml of 1M HEPES (pH 7.4) (Invitrogen) to 1000 ml of HBSS (Invitrogen) (hereinafter, HBSS/HEPES solution), 10 ml of a solution prepared by dissolving 710 mg of probenecid (Sigma) in 5 ml of 1N NaOH and then adding 5 ml of the HBSS/HEPES solution, was added and mixed, and this solution was used as the assay buffer. Next, 50 μg of Fluo3-AM was dissolved in 22 μl of DMSO (DOJIN), and an equal volume of 20% pluronic acid (Molecular Probes) was added and mixed, after which this mixture was added to 10.6 ml of the assay buffer supplemented with 105 μl of fetal bovine serum, whereby a fluorescent dye solution was prepared. […] After this pretreatment was performed, changes in intracellular calcium concentration after addition of the various test samples were measured with the FLIPR.
Compounds that activate a polypeptide consisting of the amino acid sequence shown by SEQ ID NO:2 (activators) were screened for. As an index of activation, calcium inflow in the cells was detected using a calcium-sensitive fluorescent reagent; specifically, the method described in Example 3 was used.

RIN14B cells = experiment: Channel activity in RIN14B cells using calcium-sensitive fluorescent reagent (FLIPR); format: cell-based, rat; details: RIN14B cells, Fluo3-AM
Method: RIN14B cells (5×10^4 cells), wherein the expression of TRPA1 was confirmed in Example 10, were incubated in the presence of a calcium-sensitive fluorescent reagent (Fluo3-AM; DOJINDO) at 37° C. for 1 hour to thereby incorporate the calcium-sensitive fluorescent reagent in the cells, after which the cells were washed with physiological saline to remove the calcium-sensitive fluorescent reagent that had not been incorporated in the cells. To the cells obtained, physiological saline supplemented with allyl isothiocyanate, cinnamic aldehyde, or acrolein was added; the fluorescence emitted by the cells was measured over time. The above-described measurements were performed using an automated fluorescence detection apparatus (FLIPR; Molecular Device). […] Ruthenium Red was added concurrently and a measurement was performed to determine whether or not calcium inflow in the cells was be inhibited.

C=CCN=C=S [allyl isothiocyanate]
serotonin secretion from rat EC cells (rat EC cells): significant serotonin secretion promoting activity was observed; also recorded: promoted the release of serotonin from the EC cells | bead discharge time (mouse constipation model): dose-dependently ameliorated the delay of bead discharge time by loperamide; also recorded: concentration-dependently shortened bead discharge time compared to the vehicle control | EC50 (guinea pig ileum; Cavia porcellus, read-out: EC50(μM) †): 129 µM | Action (guinea pig ileum; Magnus (guinea pig ileum)): Contraction | change in intracellular calcium concentration [1]: responded specifically (elevation of intracellular calcium concentration) | elevation of fluorescence intensity (calcium inflow) in RIN14B cells (RIN14B cells): an elevation of fluorescence intensity was detected
